Data reported in the NIST ThermoML archive (doi:10.1016/j.jct.2004.03.002).
± gives the expanded uncertainty stated by the source.

Assays:
[1] = Crystal
[2] = molar enthalpy of vaporization or sublimation; conditions: Crystal
[3] = Molar enthalpy of transition or fusion; conditions: Crystal

| Structure (SMILES) | Triple point temperature ([1]; DTA) [K] | Triple point temperature ([1]; heat flux calorimetry) [K] | molar enthalpy ([2]; 297.3 K) [kJ/mol] | molar enthalpy ([2]; 297.4 K) [kJ/mol] | molar enthalpy ([2]; 298.15 K) [kJ/mol] | Molar enthalpy of transition or fusion ([3]; DSC) [kJ/mol] | Molar enthalpy of transition or fusion ([3]; heat flux calorimetry) [kJ/mol] | molar enthalpy ([2]; 277.3 K) [kJ/mol] | molar enthalpy ([2]; 278.2 K) [kJ/mol] | molar enthalpy ([2]; 279.2 K) [kJ/mol] |
| --- | --- | --- | --- | --- | --- | --- | --- | --- | --- | --- |
| CC1=C(C)C(=O)C(C)=C(C)C1=O [1,4-benzoquinone, tetramethyl-] | 384.12 ± 0.64 | 384.84 ± 0.09 | 93.3 ± 3.2 | 91.8 ± 3.2 | 93.2 ± 4.4 | 18.4 ± 0.44 | 18.54 ± 0.16 | – | – | – |
| O=C1C=CC(=O)C=C1 [1,4-benzoquinone] | 385.07 ± 0.68 | 385.65 ± 0.24 | – | – | 66.7 ± 3.7 | 18.4 ± 0.45 | 18.4 ± 0.73 | 64.5 ± 2.5 | 63.4 ± 2.5 | 62.4 ± 2.5 |
